Key:
[1] = test system: human cardiac fibroblasts; experiment: Western blot analysis of Collagen 1 and Fibronectin protein; type: cell-based; settings: 48 h
Protocol: Lysis was induced with 0.2 ml of buffer containing 20 mM Tris-HCL, pH 7.9, 137 mM NaCl, 1% Triton X-100, 5 mM EDTA, 10 mM NaF, 1 mM β-glycerophosphate, and protease inhibitor cocktail. The protein concentration of each lysate was measured using coomassie protein reagent from PIERCE. Twenty μg of protein from each sample was loaded and electrophoresed on 4-12% gradient polyacrylamide gels and electrophoretically transferred to nitrocellulose membranes (Invitrogen, San Diego, Calif.). The membranes were incubated with rabbit anti-human Collagen 1 antibody (Cortex Biochem, San Leandro, Calif.), HRP-conjugated anti-human Fibronectin antibody, or goat anti-Actin antibody (Santa Cruz Biotehnology, Santa Cruz, Calif.) in TBST buffer containing 20 mM Tris-HCl, pH 7.5, 150 mM NaCl, 0.1% Tween-20, and 5% nonfat dried milk at 4° C. for ˜16 h. For ERK phosphorylation, cells were treated with 0.5 μmol/L BNP in the presence of 1 μmol/L KT5823 or 10 μmol/L U0126 for 15 min; the membranes were incubated with rabbit anti-human phospho-ERK ½ antibody or rabbit anti-human ERK ½ antibody (Cell Signaling, Beverly, Mass.). For secondary antibody detection, membranes were incubated with HRP-conjugated anti-rabbit antibody or anti-goat antibody at room temperature for 1 h and washed 3 times with TBST buffer. The blots were soaked in ECL Plus reagent for 5 min and exposed to KODAK x-ray film. Signals were identified and quantified using a Typhoon Scanner and Densitometer from Amersham Biosciences (Piscataway, N.J.). Data was analyzed by ANOVA using the Newman-Keuls test to assess significance. Results cGMP Production in Cardiac Fibroblasts

[2] = test system: human cardiac fibroblasts; experiment: BrdU incorporation, cardiac fibroblast proliferation; type: cell-based; settings: 5 ng/ml TGFβ
Protocol: Cells were placed in 96-well plates and cultured for 24 h before changing to serum-free medium. […] Subsequently, 10 μmol/L of 5-bromo-2′-deoxyuridine (BrdU) was added to the cells, and they were cultured for an additional 24 h. BrdU incorporation was detected using the Cell Proliferation ELISA kit (Roche, Indianapolis, Ind.). Data was analyzed by ANOVA using the Newman-Keuls test to assess significance.

[3] = test system: human cardiac fibroblasts; experiment: cDNA microarray gene expression profiling of TGFβ- and/or BNP-treated cardiac fibroblasts; settings: for number of gene expression changes induced: 1.8-fold threshold
Protocol: Two lots of primary human cardiac fibroblasts, derived from a person (lot 1) and a person (lot 2), were provided by Cambrex Bio Science (Walkersville, Md.). Cells stained positive for α-smooth muscle actin and vimenfin antibodies corroborating their identity as cardiac fibroblasts and myofibroblasts. Both lots were used for the real-time RT-PCR studies; lot 1 was used for the microarray analysis. Cells at passage 3-5 were cultured in FGM containing 15% FBS. At confluence, cells were split and cultured in 6-well plates for 24 h.
Gene expression profiles were determined from cDNA microarrays containing 8,600 elements derived from clones isolated from normalized cDNA libraries or purchased from ResGen (Invitrogen Life Technologies, Carlsbad, Calif.). DNA for spotting was generated by PCR amplification using 5′amino-modified primers (BD Biosciences Clontech, Palo Alto, Calif.) derived from flanking vector sequences. Amplified DNA was purified in a 96-well format using Qiagen's Qiaquick columns (Valencia, Calif.) according to the manufacturer's recommendations. Samples were eluted in Milli-Q purified water, dried to completion and resuspended in 7 μl of 3×SSC. A fluorescent assay using PicoGreen (Molecular Probes, Eugene, Oreg.) was randomly performed on 12% of the PCR products to determine the average yield after purification; yields were ˜1.5 μg of DNA which corresponds to a concentration of 214 μg/ml. Purified DNA was arrayed from 384-well microtiter plates onto lysine-coated glass slides using an OmniGrid II microarrayer (GeneMachines, San Carlos, Calif.). After printing, DNA was cross-linked to the glass with 65 mjoules UV irradiation and reactive amines were blocked by treatment with succinic anhydride.
Total RNA was extracted from cells using Qiagen's RNeasy kit; two wells from a 6 well plate were pooled to yield a total of 4×10^5 cells per treatment. RNA was amplified using a modified Eberwine protocol^5 that incorporated a polyA tail into the amplified RNA. Fluorescently-labeled cDNA probes were generated by reverse transcription of 4 μg of RNA with SuperScript II (Invitrogen Life Technologies, Carlsbad, Calif.) using anchored dT primers in the presence of Cy3 or Cy5 dUTP (Amersham, Piscataway, N.J.). Labeled cDNA probe pairs were precipitated with ethanol and purified using Qiaquick columns. Twenty μg each of poly(A) DNA, yeast tRNA, and human Cot1 DNA (Applied Genetics, Melbourne, Fla.) was added to the eluant. The samples were dried to completion and resuspended in 12.5 μl 3×SSC, 0.1% SDS. Probes were heated to 95° C. for 5 minutes, applied to the arrays under a 22 mm^2 cover slip and allowed to hybridize for at least 16 h at 65° C. The arrays were washed at 55° C. for 10 minutes in 2×SSC, 0.1% SDS, followed by two washes at room temperature in 1×SSC (10 min) and 0.2×SSC (15 min). Hybridization of each fluorophore was quantified using an Axon GenePix 4000A scanner.
Differential expression values were expressed as the ratio of the median of background-subtracted fluorescent intensity of the experimental RNA to the median of background-subtracted fluorescent intensity of the control RNA. For ratios greater than or equal to 1.0, the ratio was expressed as a positive value. For ratios less than 1.0, the ratio was expressed as the negative reciprocal (i.e., a ratio of 0.5=−2.0). Median ratios were normalized to 1.0 using two pools of 3000 randomly chosen cDNAs in each pool. Six replicates of each of the two pools were printed in 4 evenly distributed blocks of the array. Expression data was rejected if neither channel produced a signal of at least 2.0-fold over background. Differential expression ratios were determined as the mean of the two values from dye-swapped duplicates.

[4] = test system: human cardiac fibroblasts; experiment: Real-time RT-PCR gene expression in cardiac fibroblasts; type: cell-based; settings: normalized to 18s RNA
Protocol: Real-time RT-PCR^18 was performed in a two-step manner. cDNA synthesis and real-time detection were carried out in a PTC-100™ Thermal Cycler (MJ Research Inc, Waltham, Mass.) and an ABI Prism™ 7700 Sequence Detection System (Applied Biosystems, Foster City, Calif.), respectively. Random hexamers (Qiagen, Valencia, Calif.) were used to generate cDNA from 200 ng RNA as described in Applied Biosystems User Bulletin #2. TaqMan™ PCR Core Reagent Kit or TaqMan™ Universal PCR Master Mix (Applied Biosystems) were used in subsequent PCR reactions according to the manufacturer's protocols. Relative quantitation of gene expression was performed using the relative standard curve method. All real-time RT-PCR reactions were performed in triplicate.
Sequence specific primers and probes were designed using Primer Express Version 2 software (Applied Biosystems). Sequences of primers and probes can be found in Table 1 below. Expression levels were normalized to 18S rRNA. The selection of 18S rRNA as an endogenous control was based on an evaluation of the ΔCT levels (Applied Biosystems document # 4308134C) of 6 “housekeeping” genes: Cyclophilin A, 18S, GAPDH, β-actin, β-Glucuronidase, and Hypoxanthine Guanine Phosphoribosyl Transferase.

Substance: TGFβ
- induction of Collagen 1 protein synthesis [1]: ~3 fold
- increase in cardiac fibroblast proliferation (BrdU incorporation) [2]: ~50%
- number of gene expression changes induced ([3]; 24 h): 394
- TNFAIP6 expression elevation ([3]; 24 h, microarray): ~3 fold
- TNFSF4 expression elevation ([3]; 24 h, microarray): ~3 fold
- number of gene expression changes induced ([3]; 48 h): 501
- ACTA2 expression level relative to control ([4]; 6 h, lot 1): 1.1 ± 0.11
- CTGF expression level relative to control ([4]; 6 h, lot 1): 3.5 ± 0.08
- Collagen 1 expression level relative to control ([4]; 6 h, lot 1): 1.9 ± 0.04
- Fibronectin expression level relative to control ([4]; 6 h, lot 1): 1.1 ± 0.17
- IL6 expression level relative to control ([4]; 6 h, lot 1): 3.6 ± 0.27
- IL11 expression level relative to control ([4]; 6 h, lot 1): 13.3 ± 0.89
- PTGS2/COX-2 expression level relative to control ([4]; 6 h, lot 1): 9.0 ± 1.49
- SERPINE1/PAI-1 expression level relative to control ([4]; 6 h, lot 1): 7.3 ± 0.44
- TIMP3 expression level relative to control ([4]; 6 h, lot 1): 1.4 ± 0.03
- ACTA2 expression level relative to control ([4]; 24 h, lot 1): 2.2 ± 0.00
- CTGF expression level relative to control ([4]; 24 h, lot 1): 3.3 ± 0.25
- Collagen 1 expression level relative to control ([4]; 24 h, lot 1): 3.3 ± 0.05
- Fibronectin expression level relative to control ([4]; 24 h, lot 1): 1.0 ± 0.05
- IL6 expression level relative to control ([4]; 24 h, lot 1): 1.7 ± 0.14
- IL11 expression level relative to control ([4]; 24 h, lot 1): 32.3 ± 0.82
- PTGS2/COX-2 expression level relative to control ([4]; 24 h, lot 1): 3.5 ± 0.67
- SERPINE1/PAI-1 expression level relative to control ([4]; 24 h, lot 1): 8.5 ± 0.08
- TIMP3 expression level relative to control ([4]; 24 h, lot 1): 2.6 ± 0.26
- ACTA2 expression level relative to control ([4]; 24 h, lot 2): 2.3 ± 0.12
- CTGF expression level relative to control ([4]; 24 h, lot 2): 2.2 ± 0.16
- Collagen 1 expression level relative to control ([4]; 24 h, lot 2): 1.5 ± 0.09
- Fibronectin expression level relative to control ([4]; 24 h, lot 2): 1.0 ± 0.02
- IL6 expression level relative to control ([4]; 24 h, lot 2): 1.4 ± 0.05
- IL11 expression level relative to control ([4]; 24 h, lot 2): 7.7 ± 0.81
- PTGS2/COX-2 expression level relative to control ([4]; 24 h, lot 2): 4.9 ± 0.36
- SERPINE1/PAI-1 expression level relative to control ([4]; 24 h, lot 2): 2.4 ± 0.06
- TIMP3 expression level relative to control ([4]; 24 h, lot 2): 1.5 ± 0.12
- ACTA2 expression level relative to control ([4]; 48 h, lot 1): 1.0 ± 0.19
- CTGF expression level relative to control ([4]; 48 h, lot 1): 3.1 ± 0.01
- Collagen 1 expression level relative to control ([4]; 48 h, lot 1): 3.8 ± 0.38
- Fibronectin expression level relative to control ([4]; 48 h, lot 1): 2.2 ± 0.38
- IL6 expression level relative to control ([4]; 48 h, lot 1): 1.6 ± 0.12
- IL11 expression level relative to control ([4]; 48 h, lot 1): 17.6 ± 0.22
- PTGS2/COX-2 expression level relative to control ([4]; 48 h, lot 1): 2.2 ± 0.12
- SERPINE1/PAI-1 expression level relative to control ([4]; 48 h, lot 1): 8.4 ± 1.33
- TIMP3 expression level relative to control ([4]; 48 h, lot 1): 3.0 ± 0.34
- ACTA2 expression level relative to control ([4]; 48 h, lot 2): 2.5 ± 0.13
- CTGF expression level relative to control ([4]; 48 h, lot 2): 2.1 ± 0.14
- Collagen 1 expression level relative to control ([4]; 48 h, lot 2): 2.5 ± 0.32
- Fibronectin expression level relative to control ([4]; 48 h, lot 2): 2.0 ± 0.39
- IL6 expression level relative to control ([4]; 48 h, lot 2): 1.4 ± 0.17
- IL11 expression level relative to control ([4]; 48 h, lot 2): 5.9 ± 0.18
- PTGS2/COX-2 expression level relative to control ([4]; 48 h, lot 2): 5.4 ± 0.92
- SERPINE1/PAI-1 expression level relative to control ([4]; 48 h, lot 2): 2.6 ± 0.03
- TIMP3 expression level relative to control ([4]; 48 h, lot 2): 1.7 ± 0.13

— patent publication US20060019890A1, “Method for treating cardiac remodeling following myocardial injury” (priority 2004, published 2006)
